Columns and labels:
Type in all cases: in vivo
[1] = tested on: GPx-1 (+/+)- and GPx-1 (−/−)-mice; experiment: MA-induced hyperthermia (rectal temperature); settings: PKC inhibitors intra-striatal (doses of Table 1); MA 8 mg/kg i.p. x4; GPx-1 (+/+) and GPx-1 (−/−) mice
Protocol: (§1) The mice received four times of MA (8 mg/kg, ip) or saline as a 2 hr-time interval. Chemicals (AME, EBS, and PKC inhibitors) were administrated for 5 consecutive days (twice daily), and were given 2 times at 4 hr and 30 min before the first MA injection as shown in the experimental schedule. Animals were sacrificed at 4 hrs and 3 days after the final MA administration.
Rectal temperature was measured in the MA- or saline-treated mice. Measurement was performed at constant daytime intervals starting at 9:00 A.M. to avoid the influence on circadian variations. Rectal temperature was measured by inserting a thermometer probe lubricated with oil at least 3 cm into the rectum of the mice. To prevent sudden movements occurring especially in MA-treated mice, animals were gently handled with a wool glove while their tail was moved to allow the probe insertion. This was done to prevent the effects of restrain stress on rectal temperature. When the attempt to insert probe was not successful (i.e., sudden movements of the animal or the need to restrain the mouse), the animal was excluded from the groups.

[2] = tested on: GPx-1 (+/+)- and GPx-1 (−/−)-mice; experiment: Locomotor activity after MA; settings: PKC inhibitors intra-striatal (chelerythrine 0.2 ug/head, rottlerin 3.0 ug/head significant); MA 8 mg/kg i.p. x4; GPx-1 (+/+) and (−/−) mice
Protocol: as §1
Locomotor activity was measured for 30 min 3 days after the last MA administration using an automated video-tracking system (Noldus Information Technology, Wagenin, The Netherlands). Four test boxes (40×40×30 cm high) were operated simultaneously by an IBM computer. Mice were studied individually during locomotion in each test box, where they were adapted for 5 min before starting the experiment. […] The distance traveled in cm by the animals in horizontal locomotor activity was analyzed. Data were collected and analyzed between 09:00 and 17:00 h (Kim et al., 2001).

[3] = tested on: GPx-1 (+/+)- and GPx-1 (−/−)-mice; experiment: Rota-rod test after MA; settings: PKC inhibitors intra-striatal (chelerythrine 0.2 ug/head, rottlerin 3.0 ug/head significant); MA 8 mg/kg i.p. x4; GPx-1 (+/+) and (−/−) mice
Protocol: as §1
The apparatus (Ugo Basile model 7650, Comerio, VA, Italy) consisted of a base platform and a rotating rod with a nonslippery surface. The rod was placed at a height of 15 cm from the base. The rod, 30 cm in length, was divided into 5 equal sections by 6 opaque disks (so that the subjects cannot be distracted by one another) To assess motor performance, the mice first trained on the apparatus 2 minutes at a constant rate of 4 r.p.m. per 30 s prior to the test. The test was performed 30 minutes after training and an accelerating paradigm was applied, starting from a rate of 4 r.p.m. to a maximum speed of 40 r.p.m., then the rotation speed was kept constant at 40 r.p.m. for a maximum of 300 s. The duration for which the animal could maintain balance on the rotating drum was measured as the rotarod latency, with a maximal cut-off time of 300 s.

SMILES	effect on MA-induced hyperthermia [1]	effect on MA-induced impairment in locomotor activity [2]	effect on MA-induced impairment in rota-rod performance [3]
Cn1c2ccccc2c2c3c(c4c5ccccc5n(CCC#N)c4c21)CNC3=O [Go 6976]	did not show any significant effect	did not affect MA-induced behavioral impairments	did not affect MA-induced behavioral impairments
O=c1cc(O)cc(/C=C/c2ccc(O)c(O)c2)o1 [hispidin]	did not show any significant effect	did not affect MA-induced behavioral impairments	did not affect MA-induced behavioral impairments

Source: US20120328696A1, “ANTI-PARKINSONIAN COMPOUND ACETYLSALICYLIC ACID MALTOL ESTER” (Hutecs Korea Pharmaceutical Co., Ltd., priority 2008, published 2012)
